Measurements as given in article PMC11651181, “Discovery of 6α-Thiazolylcarboxamidonaltrexamine Derivative (NTZ) as a Potent and Central Nervous System Penetrant Opioid Receptor Modulator with Drug-like Properties for Potential Treatment of Opioid Use Disorder” (ACS Pharmacology & Translational Science, 2024).
Entries after “also recorded” stand apart in the source; their conditions may differ. Counter-ions that a name gives are not always drawn.

Columns and labels:
[1] = Plasma protein binding, human; assay type: in vitro ADME
Experimental: (§1) The ADMET assessment including the hERG inhibitory activity, plasma protein binding, in vitro metabolic stability profile, CYP inhibitory effect and mutagenic evaluation were conducted by Eurofins Panlabs, Inc.[21],[61],[69]−[71]

[2] = tested on: morphine-pelleted mice; assay: In vivo opioid withdrawal studies in morphine-pelleted mice; parameters: species or system mouse
Experimental: Swiss Webster mice (six males per group, weighing 25–35 g and aged 6–8 weeks) were used. Following a previously established protocol,[20] a 75 mg morphine pellet was implanted subcutaneously into the back of each mouse, and they were allowed to recover in their home cages. Prior to testing, the mice were habituated for 30 min in an open-topped, clear Plexiglas observation chamber (26 × 26 × 26 cm^3) with lines marking the floor into quadrants. […]. Withdrawal symptoms began within 3 min of antagonist administration. Escape jumps, paw tremors, and wet dog shakes were recorded by counting their occurrences over a 20 min period for each mouse. Results are expressed as the mean ± SEM.

[3] = biological target: T1, μ opioid receptor (MOR) (Mus musculus, UniProt P42866); assay: Competitive radioligand binding assay, MOR
T1 construct: expressed in transfected cells; host or cells: CHO (mMOR-CHO), membrane preparation
Experimental: (§2) The competition binding assay was performed using monoclonal mouse opioid receptors expressed in CHO cell lines (monoclonal human δ opioid receptor was used for the DOR assay).
(§3) The bound radioligand was separated using a Brandel harvester. Specific binding to the MOR, KOR, and DOR was calculated by subtracting the binding observed in the presence of 5 μM naltrexone, U50488, and SNC80, respectively, from the binding in their absence. Relative affinity values (IC50) were determined by fitting displacement binding inhibition data to a nonlinear regression model using GraphPad Prism 8.0 (GraphPad Software, San Diego, CA). The % inhibition was calculated using the formula: % inhibition = 100% - [(binding with the tested compound - nonspecific binding)/specific binding] × 100%. The IC50 values were converted to Ki values using the Cheng-Prusoff equation: Ki = IC50/ [1 + ([L*]/KD)], where [L*] is the concentration of the radioligand and KD is the KD of the radioligand.[68]

[4] = In vitro metabolic stability in Sprague-Dawley rat liver microsomes; assay type: in vitro ADME; conditions: 1.0E-07 M; for % Compound Remaining, mean: rat liver microsomes
Experimental: as §1

[5] = In vitro metabolic stability in human liver microsomes; assay type: in vitro ADME; conditions: 1.0E-07 M
Experimental: as §1

[6] = tested on: Swiss Webster mice; assay: Warm-water tail immersion assay, antagonism of morphine-induced antinociception
[7] = biological target: T2, MOR (Mus musculus, UniProt P42866); assay: MOR calcium flux assay in Gαqi5-transfected mMOR-CHO cells; assay type: cell-based
T2 construct: expressed in transfected cells; host or cells: CHO (MOR-CHO), membrane preparation

[8] = tested on: typical tester strains; assay: Bacterial reverse mutation assay; conditions: up to 100 μM
Experimental: as §1

[9] = biological target: T3, κ opioid receptor (KOR) (Mus musculus, UniProt P33534); assay: Competitive radioligand binding assay, KOR
T3 construct: expressed in transfected cells; host or cells: CHO (mKOR-CHO), membrane preparation
Experimental: as §2, §3

[10] = biological target: hERG potassium channel (Homo sapiens, UniProt Q12809); assay: hERG inhibitory activity assay (automated patch-clamp, CHO-K1 cells)
[11] = biological target: T4, CYP3A4 (Homo sapiens, UniProt P08684); assay: Cytochrome P450 inhibition assay, CYP3A4; assay type: in vitro ADME
T4 construct: Eurofins Panlabs, Inc. (contract laboratory)
Experimental: as §1

[12] = biological target: T2, MOR; assay: MOR [35S]GTPγS functional assay; assay type: biochemical
Experimental: The [^35S]GTPγS functional assay was used to assess the efficacy of compounds at the MOR, KOR, and DOR. In this assay, 10 μg of MOR-CHO/KOR-CHO/DOR-CHO membrane protein was incubated in 500 μL of TME with 100 mM NaCl, 20 μM GDP, 0.1 nM [^35S]GTPγS, and varying concentrations of the compound for 1.5 h in a 30 °C water bath. Protein concentration was adjusted using the Bradford protein assay. […] After incubation, bound radioactivity was separated by filtration through GF/B glass fiber filters and measured by liquid scintillation counting. All assays were performed in duplicate and repeated at least three times. Net stimulated [35S]GTPγS binding was calculated as agonist-stimulated minus basal binding.

[13] = Plasma protein binding, Sprague-Dawley rat; assay type: in vitro ADME
Experimental: as §1

[14] = Caco-2 permeability studies; assay type: in vitro ADME; conditions: human, 1 h incubation
Experimental: Caco-2 cells (HTB-37) were cultured in T75 flasks using DMEM supplemented with 10% FBS, 1% glutamine, penicillin, and streptomycin at 37 °C and 5% CO2. Cells were passaged at 80–90% confluency and seeded into Millipore 96-well plates (25,000 cells/well) to form monolayers, with media changed every 2–3 days for 21 days until 100% confluency. Permeability studies involved adding 10 μM compound 6 to the apical (A) or basolateral (B) side and measuring permeation across the monolayer. Lucifer yellow dye (100 μM) was used in the A-side buffer as a control. Incubation lasted 1 h, and permeability was assessed using ranitidine/colchicine (low permeability) and labetalol/propranolol (high permeability) as controls. Samples were collected, quenched with methanol, centrifuged, and analyzed by HPLC-MS/MS to determine peak area ratios.
Data was expressed as [drawing 1] here VR is the volume of the receiver chamber. CR,end is the concentration of the test compound in the receiver chamber at the final time point, Δt denotes the incubation time, and A is the surface area of the cell monolayer. CD,mid is the average midpoint concentration of the test compound on the donor side, calculated as the mean of the donor concentrations at 0 min and at the end time point. […] Test compound concentrations were determined based on their peak areas.

[15] = 5 mg/kg s.c., counted over 20 min
[16] = Sprague-Dawley rat liver microsomes
[17] = human, CHO-K1 cells stably expressing hERG

Q: With O=C(N[C@H]1CC[C@@]2(O)[C@H]3Cc4ccc(O)c5c4[C@@]2(CCN3CC2CC2)[C@H]1O5)c1nccs1 [Compound 6, 17-Cyclopropylmethyl-3,14β-dihydroxy-4,5α-epoxy-6α-(2′-thiazolylcarboxamido)-morphinan hydrochloride] as the compound, how does the fraction unbound [1] read?
A: Its fraction unbound is 0.56.

Q: What about the “Jumps, mean count” value [2, 15] of the same compound?
A: Its value is 36.8.

Q: What about the “Paw tremors, mean count” value [2, 15] of the same compound?
A: The value was 30.2.

Q: What about the “Wet dog shake, mean count” value [2, 15] of the same compound?
A: The value was 9.8.

Q: And the “Precipitated withdrawal symptoms, in words” value ([2]; s.c.)?
A: The value was “fewer wet dog shakes and paw tremors at all testing doses than 1 mg/kg NLX”.

Q: And the Ki [3]?
A: The Ki was 0.25 ± 0.03 nM.

Q: What about the half-life at 100 nM [4, 16] of the same compound?
A: The half-life at 100 nM was greater than 1 h.

Q: What about the microsomal CLint at 100 nM [4, 16] of the same compound?
A: The microsomal CLint at 100 nM was less than 38.5 µL/min/mg.

Q: What about the “% Compound Remaining, mean” value ([4]; 15 min) of the same compound?
A: Its value is 106%.

Q: What about the “% Compound Remaining, mean” value ([4]; 30 min) of the same compound?
A: The value was 115%.

Q: And the “% Compound Remaining, mean” value ([4]; 45 min)?
A: The value was 103%.

Q: What about the “% Compound Remaining, mean” value ([4]; 60 min) of the same compound?
A: Its value is 105%.

Q: What about the half-life at 100 nM [5] of the same compound?
A: The half-life at 100 nM was greater than 1 h.

Q: What about the microsomal CLint at 100 nM [5] of the same compound?
A: Its microsomal CLint at 100 nM is less than 38.5 µL/min/mg.

Q: And the “% Compound Remaining, mean” value ([5]; 15 min)?
A: Its value is 101%.

Q: And the “% Compound Remaining, mean” value ([5]; 30 min)?
A: Its value is 101%.

Q: What about the “% Compound Remaining, mean” value ([5]; 45 min) of the same compound?
A: The value was 103%.

Q: What about the “% Compound Remaining, mean” value ([5]; 60 min) of the same compound?
A: Its value is 97%.

Q: And the “AD50 (95% CL) for counteracting morphine-induced antinociception” value ([6]; mice, s.c., given 5 min before morphine)?
A: The value was 0.043 (0.007–0.25) mg/kg.

Q: What about the “Antagonism of morphine's antinociception, in words” value ([6]; single dose of 10 mg/kg s.c. in the presence of morphine (10 mg/kg), n = 6) of the same compound?
A: The value was “significantly antagonized”.

Q: And the IC50 [7]?
A: The IC50 was 5.64 ± 0.24 nM.

Q: What about the “Agonistic activity in increasing intracellular calcium, in words” value ([7]; compared to full MOR agonist DAMGO) of the same compound?
A: Its value is “no apparent agonism; also recorded: none of them showed any significant agonistic activity”.

Q: And the “Mutagenic potential, in words” value [8]?
A: Its value is “no mutagenic potential”.

Q: What about the Ki [9] of the same compound?
A: The Ki was 1.3 ± 0.12 nM.

Q: What about the “Selectivity κ/μ” value ([9]; ratio of Ki values) of the same compound?
A: Its value is 5.

Q: And the IC50 [10]?
A: Its IC50 is 7400 nM.

Q: And the inhibition at 10 nM [10, 17]?
A: Its inhibition at 10 nM is 2.6%.

Q: And the inhibition at 100 nM [10, 17]?
A: The inhibition at 100 nM was 6%.

Q: What about the inhibition at 1 µM [10, 17] of the same compound?
A: Its inhibition at 1 µM is 18.5%.

Q: And the inhibition at 10 µM [10, 17]?
A: The inhibition at 10 µM was 55.5%.

Q: What about the inhibition at 0.0001 M [10, 17] of the same compound?
A: The inhibition at 0.0001 M was 86.8%.

Q: And the inhibition at 10 µM ([11]; 1.0E-05 M)?
A: Its inhibition at 10 µM is 23.5%.

Q: And the inhibition at 100 nM ([11]; 1.0E-07 M)?
A: The inhibition at 100 nM was 10.1%.

Q: And the EC50 [12]?
A: Its EC50 is 2.16 ± 0.38 nM.

Q: And the Emax ([12]; read-out: MOR [35S]GTPγS Binding %Emax of DAMGO, relative to 3 μM DAMGO, mean ± SEM)?
A: Its Emax is 6 to 11%.

Q: What about the “MOR [35S]GTPγS Binding %Emax of DAMGO” value ([12]; relative to 3 μM DAMGO, mean ± SEM) of the same compound?
A: Its value is 11.3 ± 1.30%.

Q: What about the fraction unbound [13] of the same compound?
A: The fraction unbound was 0.4.

Q: And the Papp A→B at 1 h, 10 μM [14]?
A: Its Papp A→B at 1 h, 10 μM is 13.1 ×10⁻⁶ cm/s.

Q: What about the Papp B→A at 1 h, 10 μM [14] of the same compound?
A: The Papp B→A at 1 h, 10 μM was 33.2 ×10⁻⁶ cm/s.
